From patent US20250289780A1, “N,N'-DIPHENYL-4,4'-BIPHENYLDICARBOXAMIDE ANALOGS AND THEIR USE IN CANCER TREATMENT” (Board of Regents, The University of Texas System, priority 2024, published 2025)
“Also recorded” adds a separate entry of the source.

What was measured:
Bcl-xL = Bcl-xL (Homo sapiens, UniProt Q07817); test: Fluorescence polarization (FP) binding assay, Bcl-xL
Method: (§1) FIGS. 3A-3B show binding affinity to Bcl-xL, Bcl-2 and Mcl-1 determined by FP assay. FIG. 3A: compounds 1-9 mimicking BH3 peptides of proapoptotic proteins (scaffold I). FIG. 3B: Bim-mimicking compounds 10-16 derived from scaffolds II-VIII.
(§2) Their binding affinities on Bcl-xL, Bcl-2, and Mcl-1 were determined by fluorescence polarization (FP) assays (FIG. 3A). […] The role of carboxylic acids at both ends of compound 1 was also studied.

Mcl-1 = Mcl-1 (Homo sapiens, UniProt Q07820); test: Fluorescence polarization (FP) binding assay, Mcl-1
Sequence of Mcl-1 (Q07820 whole entry): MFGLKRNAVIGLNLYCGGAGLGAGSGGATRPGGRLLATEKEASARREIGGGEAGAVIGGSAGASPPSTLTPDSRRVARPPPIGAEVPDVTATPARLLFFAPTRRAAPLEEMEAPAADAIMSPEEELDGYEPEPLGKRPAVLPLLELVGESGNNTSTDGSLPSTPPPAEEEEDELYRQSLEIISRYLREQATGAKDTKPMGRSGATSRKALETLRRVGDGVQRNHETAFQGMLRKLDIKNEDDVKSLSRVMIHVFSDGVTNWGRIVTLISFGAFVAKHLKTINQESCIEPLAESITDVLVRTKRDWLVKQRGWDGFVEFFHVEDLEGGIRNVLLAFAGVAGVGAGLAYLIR
Method: as §1, §2

Bcl-2 = Bcl-2 (Homo sapiens, UniProt P10415); test: Fluorescence polarization (FP) binding assay, Bcl-2
Sequence of Bcl-2 (P10415 whole entry): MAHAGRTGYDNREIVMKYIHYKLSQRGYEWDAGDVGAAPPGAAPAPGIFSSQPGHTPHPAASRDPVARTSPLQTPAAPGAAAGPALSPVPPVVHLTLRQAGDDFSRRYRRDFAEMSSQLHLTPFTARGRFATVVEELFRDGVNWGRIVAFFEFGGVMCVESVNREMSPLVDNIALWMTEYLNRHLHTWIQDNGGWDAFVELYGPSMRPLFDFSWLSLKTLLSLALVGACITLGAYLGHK
Method: as §1, §2

DU145 cells = test: MTT anti-proliferative assay, DU145; type: cell-based; details: Homo sapiens, DU-145, read-out: IC50, cell growth
Method: (§3) These compounds were examined for their capabilities of inducing apoptosis. When effectors are released from anti-apoptotic proteins, they form pores on the outer mitochondrial membrane, leading to mitochondrial outer membrane permeabilization (MOMP) and cytochrome c release which promote caspase activation. The formation of pores on the outer mitochondrial membrane and the resulting change in mitochondrial membrane potential were determined by JC-1 staining. […] The anti-proliferative activity was also evaluated using MTT assay in prostate cancer cells.

PC3 cells [1] = test: MTT anti-proliferative assay, PC3; type: cell-based; details: for cell growth inhibition: 10 μM, 24 h, MTT
Method: (§4) FIGS. 5A-5F show cellular activity of mimetics 1, 14, and 23. FIG. 5A: effect of mimetics on the interaction between Bak and antiapoptotic proteins. PC3 cells were incubated in the presence or absence of mimetics (10 μM) for 24 h and cell lysates were analyzed by immunoprecipitation followed by western blotting. FIG. 5B: mitochondrial membrane depolarization by mimetics. PC3 cells that were treated with mimetics, ABT737 or MIM1 were stained with JC-1 dye and analyzed for change in red to green fluorescence intensity ratio of JC-1 dye. FIG. 5C: activation of caspase-3/-9 by mimetics. PC3 cells were treated with different concentrations of mimetics, ABT737, and MIM1 for 24 h and activities of caspase-3/-9 were measured using caspase-specific colorimetric assay kits. FIG. 5D: downregulation of Mcl-1 by siRNA. PC3 cells were transfected with Mcl-1 siRNA (30 μmol) or control siRNA (30 μmol) for 24 h and cell lysates were analyzed by western blotting. FIG. 5E: effect of Mcl-1 knockdown on mimetics-induced caspase activation. Same as for C except for the use of Mcl-1 knockdown PC3 cells. FIG. 5F: effect of Mcl-1 knockdown on mimetics-induced cell growth. PC3 cells were treated with mimetics (10 μM) or MIM1 (10 μM) for 24 h and cell viability was determined using MTT assay.
as §3
(§5) Its specificity to Mcl-1 on prostate cancer cells with Mcl-1 silenced by siRNA (FIG. 5D) was further investigated. Compound 23 induced up to 3-fold increase in caspase-3/-9 activity in untransfected and control-transfected PC3 cells. Knockdown of Mcl-1, however, decreased the M161-induced caspase activity to the basal level (FIG. 5E). In MTT assay, 23 inhibited cell growth by 64% and 62% in untransfected and control-transfected PC3 cells, respectively.

caspase-3/-9 = test: Caspase-3/-9 colorimetric activity assay in PC3 cells; type: cell-based; details: for caspase-9/-3 activity (in words): PC3 cells, different concentrations, 24 h
Method: as §4, §3, §5

PC3 cells [2] = test: Mitochondrial membrane depolarization, JC-1 staining; type: cell-based
Method: as §4, with “FIG. 5E: effect of Mcl-1 knockdown on mimetics-induced caspase activation. Same as for C except for the use of Mcl-1 knockdown PC3 cells. FIG. 5F: effect of Mcl-1 knockdown on mimetics-induced cell growth.” left out
These compounds were examined for their capabilities of inducing apoptosis. […] The formation of pores on the outer mitochondrial membrane and the resulting change in mitochondrial membrane potential were determined by JC-1 staining. […] The anti-proliferative activity was also evaluated using MTT assay in prostate cancer cells.

[3] = biological target: T1, interaction of Bak with Bcl-2 (Homo sapiens, UniProt P10415); test: Co-immunoprecipitation in PC3 cells, Bak/Bcl-2; type: cell-based; details: 10 μM, 24 h, immunoprecipitation and western blotting
T1 construct: endogenous in cells; host or cells: PC3 cells
T1 sequence (P10415 whole entry): as above
Method: as §4, with “assay. […]” for “assay.”

[4] = biological target: T2, interaction of Bak with Bcl-xL (Homo sapiens, UniProt Q07817); test: Co-immunoprecipitation in PC3 cells, Bak/Bcl-xL; type: cell-based; details: 10 μM, 24 h, immunoprecipitation and western blotting
T2 construct: endogenous in cells; host or cells: PC3 cells
T2 sequence (Q07817 whole entry): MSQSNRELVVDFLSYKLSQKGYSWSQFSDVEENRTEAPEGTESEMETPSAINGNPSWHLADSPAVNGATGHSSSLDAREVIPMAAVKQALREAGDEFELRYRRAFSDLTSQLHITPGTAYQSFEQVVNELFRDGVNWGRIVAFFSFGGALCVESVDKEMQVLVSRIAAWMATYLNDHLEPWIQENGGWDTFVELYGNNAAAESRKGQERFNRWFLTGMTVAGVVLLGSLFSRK
Method: as §4, with “assay. […]” for “assay.”

LNCaP cells = test: MTT anti-proliferative assay, LNCaP; type: cell-based; details: Homo sapiens, read-out: IC50, cell growth
Method: as §3

[5] = biological target: T3, interaction of Bak with Mcl-1 (Homo sapiens, UniProt Q07820); test: Co-immunoprecipitation in PC3 cells, Bak/Mcl-1; type: cell-based; details: 10 μM, 24 h, immunoprecipitation and western blotting
T3 construct: endogenous in cells; host or cells: PC3 cells
T3 sequence (Q07820 whole entry): as the sequence (Q07820 whole entry) above
Method: as §4, with “assay. […]” for “assay.”

Sequence of Bcl-xL (Q07817 whole entry): as the sequence (Q07817 whole entry) above

| SMILES | binding affinity to Bcl-xL (in words) (Bcl-xL) | binding affinity to Mcl-1 (in words) (Mcl-1) | binding affinity to Bcl-2 (in words) (Bcl-2) | also measured |
| --- | --- | --- | --- | --- |
| CCC(C)COc1cc(-c2ccc(C(=O)Nc3ccc(C(=O)O)cc3OC(C)CC)c(OCCC(C)C)c2)ccc1C(=O)Nc1ccccc1OCc1ccccc1 (stereo not shown) [Compound 9] | complete loss in binding affinities | complete loss in binding affinities | complete loss in binding affinities |  |
| CCC(C)COc1cc(-c2ccc(C(=O)Nc3ccc(C(=O)O)cc3OC(C)CC)c(OCCC(C)C)c2)ccc1C(=O)Nc1ccc(C(=O)O)cc1OCc1ccccc1 (stereo not shown) [Compound 1, 3-(Benzyloxy)-4-(4′-((2-(sec-butoxy)-4-carboxyphenyl)carbamoyl)-3′-(isopentyloxy)-3-(2-methylbutoxy)-[1,1′-biphenyl]-4-carboxamido)benzoic acid] |  |  |  | IC50 (Bcl-xL): 0.14 to 0.23 µM; IC50 (DU145 cells): 2.87 to 9.67 µM; IC50 (PC3 cells [1]; Homo sapiens, PC-3, PC3, MTT assay, read-out: IC50, cell growth): 2.87 to 9.67 µM; caspase-9/-3 activity (in words) (caspase-3/-9): induced caspase-9/-3 activity in a dose-dependent manner; IC50 (Mcl-1): 0.14 to 0.23 µM; red to green fluorescence intensity ratio of JC-1 dye (PC3 cells [2]): significantly reduced; disruption of the interaction of Bak with Bcl-2 [3]: disrupted the interaction; disruption of the interaction of Bak with Bcl-xL [4]: disrupted the interaction; IC50 (LNCaP cells): 2.87 to 9.67 µM; IC50 (Bcl-2): 0.14 to 0.23 µM; disruption of the interaction of Bak with Mcl-1 [5]: disrupted the interaction |
| CCC(C)COc1cc(-c2ccc(C(=O)Nc3ccc(C(=O)O)c(OC(C)CC)c3)c(OCCC(C)C)c2)ccc1C(=O)Nc1ccc(C(=O)O)c(OCc2ccccc2)c1 (stereo not shown) [Compound 11] | selectivity for Bcl-xL and Bcl-2 |  | selectivity for Bcl-xL and Bcl-2 |  |
| CCCCOc1cc(C(=O)O)ccc1NC(=O)c1ccc(-c2ccc(C(=O)Nc3ccc(C(=O)O)cc3OC(C)CC)c(OCCC(C)C)c2)cc1OCC(C)C (stereo not shown) [Compound 3] | no inhibition | no inhibition | no inhibition |  |
| CCC(C)COc1cc(-c2ccc(C(=O)Nc3ccc(C(=O)O)cc3OC(C)CC)c(OC(C)CC)c2)ccc1C(=O)Nc1ccc(C(=O)O)cc1OCc1ccccc1 (stereo not shown) [Compound 22] | selective affinity only to Bcl-xL |  |  | IC50 (Bcl-xL): 0.65 µM |
| CCOc1cc(C(=O)O)ccc1NC(=O)c1ccc(-c2ccc(C(=O)Nc3ccc(C(=O)O)cc3OCC(C)C)c(OCCc3ccccc3)c2)cc1OCCC(C)C [Compound 7] |  |  | affinity only for Bcl-2 |  |
| CCC(C)Oc1cc(C(=O)O)ccc1NC(=O)c1ccc(-c2ccc(C(=O)Nc3ccc(C(=O)O)cc3OC(C)CC)c(OC(C)CC)c2)cc1OCCC(C)C (stereo not shown) [Compound 20] | negligible binding | negligible binding |  | IC50 (Bcl-2): 0.34 µM |
| CCC(C)COc1cc(-c2ccc(C(=O)Nc3ccc(C(=O)O)cc3OC(C)CC)cc2OCCC(C)C)ccc1C(=O)Nc1ccc(C(=O)O)c(OCc2ccccc2)c1 (stereo not shown) [Compound 13] | substantially increased its affinity to Bcl-xL and Bcl-2 compared to Mcl-1 |  | substantially increased its affinity to Bcl-xL and Bcl-2 compared to Mcl-1 |  |
| CCCCCOc1cc(-c2ccc(C(=O)Nc3ccc(C(=O)O)cc3OC(C)CC)c(OCCC(C)C)c2)ccc1C(=O)Nc1ccc(C(=O)O)cc1OCC(C)C (stereo not shown) [Compound 2] | low affinity | low affinity | high affinity |  |
| CCC(C)COc1cc(-c2ccc(C(=O)Nc3ccc(C(=O)O)cc3OCC(C)C)c(OCCC(C)C)c2)ccc1C(=O)Nc1ccc(C(=O)O)cc1OCC(C)C (stereo not shown) [Compound 4] |  |  | very selective for inhibiting Bcl-2 over Bcl-xL and Mcl-1 |  |
| CCC(C)COc1cc(-c2ccc(C(=O)Nc3ccc(C(=O)O)c(OC(C)CC)c3)c(OCCC(C)C)c2)ccc1C(=O)Nc1ccc(C(=O)O)cc1OCc1ccccc1 (stereo not shown) [Compound 10] | lost affinity | maintaining affinity | maintaining affinity |  |
| CCCCCOc1cc(-c2ccc(C(=O)Nc3ccc(C(=O)O)cc3OCc3ccc(F)cc3)c(OCCC(C)C)c2)ccc1C(=O)Nc1ccc(C(=O)O)cc1OCc1ccccc1 [Compound 6] | did not bind | did not bind | did not bind |  |
| CCC(C)COc1cc(-c2ccc(C(=O)Nc3ccc(C(=O)O)cc3OC(C)CC)cc2OCCC(C)C)ccc1C(=O)Nc1ccc(C(=O)O)cc1OCc1ccccc1 (stereo not shown) [Compound 12] | significantly lost affinity | significantly lost affinity | significantly lost affinity |  |
| CCC(C)COc1cc(-c2ccc(C(=O)Nc3ccc(C(=O)O)cc3OC(C)C)c(OCCC(C)C)c2)ccc1C(=O)Nc1ccc(C(=O)O)cc1OC(C)CC (stereo not shown) [Compound 5] | negligible affinity; also recorded: not to Bcl-xL |  |  |  |
| CCC(C)Oc1cc(C(=O)O)ccc1NC(=O)c1ccc(-c2ccc(C(=O)Nc3ccc(C(=O)O)cc3OC(C)CC)c(OC(C)C)c2)cc1OCCC(C)C (stereo not shown) [Compound 23] |  | selectively inhibited only Mcl-1 |  | cell growth inhibition (PC3 cells [1]; Mcl-1 knockdown PC3 cells): 18%; cell growth inhibition (PC3 cells [1]; control-transfected PC3 cells): 62%; cell growth inhibition (PC3 cells [1]; untransfected PC3 cells): 64%; induced caspase activity (in words) (caspase-3/-9; Mcl-1 knockdown (siRNA) PC3 cells): basal level; caspase-9/-3 activity (in words) (caspase-3/-9): induced caspase-9/-3 activity in a dose-dependent manner; increase in caspase-3/-9 activity (caspase-3/-9; control-transfected PC3 cells): up to 3 fold; increase in caspase-3/-9 activity (caspase-3/-9; untransfected PC3 cells): up to 3 fold; IC50 (Mcl-1): 0.16 µM; red to green fluorescence intensity ratio of JC-1 dye (PC3 cells [2]): significantly reduced; disruption of the interaction of Bak with Mcl-1 [5]: selectively inhibited Mcl-1 over Bcl-xL and Bcl-2 |
